Measurements published in PubChem BioAssay AID330 (DTP/NCI, 2004).
Several values for one entry are separate records, joined by “and”; a condition that tells them apart may be missing. Equal values may be shown once. Inconclusive results and toxic doses are left out. The calls were made as follows: active = survival T/C of 150% or more; inactive = T/C below 125% in these data.

System: P388 leukemia ip, CD2F1 mice, survival T/C
Assay: NCI In Vivo Anticancer Drug Screen. Data for tumor model P388 Leukemia (intraperitoneal) in CD2F1 (CDF1) mice
Conditions: endpoint: median survival time, higher = longer survival
Method in brief: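 Mice carrying the transplanted tumor received test compound or vehicle. Survival was recorded in each group, and the value is the treated-group measurement divided by that of the vehicle-treated control group.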

[1] = dose: 60.0 mg/kg/injection, schedule: Q01DX005 (ip), vehicle: saline with Tween-80
[2] = dose: 120.0 mg/kg/injection, schedule: Q01DX005 (ip), vehicle: saline with Tween-80
[3] = dose: 6.25 mg/kg/injection, schedule: Q01DX009 (ip), vehicle: saline
[4] = dose: 12.5 mg/kg/injection, schedule: Q01DX009 (ip), vehicle: saline
[5] = dose: 25.0 mg/kg/injection, schedule: Q01DX009 (ip), vehicle: saline
[6] = dose: 50.0 mg/kg/injection, schedule: Q01DX009 (ip), vehicle: saline
[7] = dose: 50.0 mg/kg/injection, schedule: Q01DX005 (ip), vehicle: saline with Tween-80
[8] = dose: 100.0 mg/kg/injection, schedule: Q01DX005 (ip), vehicle: saline with Tween-80
[9] = dose: 200.0 mg/kg/injection, schedule: Q01DX005 (ip), vehicle: saline with Tween-80

Measured: T/C

COC1=C(N)C(=O)c2nc(-c3nc(C(=O)O)c(C)c(-c4ccc(OC)c(OC)c4O)c3N)ccc2C1=O
inactive: dose: 0.01 mg/kg/injection, schedule: Q01DX009 (ip), vehicle: other 93 % of control | dose: 0.01 mg/kg/injection, schedule: Q## X024 (ip), vehicle: other 110 % of control | dose: 0.02 mg/kg/injection, schedule: Q01DX009 (ip), vehicle: DMSO 101 % of control | dose: 0.02 mg/kg/injection, schedule: Q## X016 (ip), vehicle: other 110 % of control | dose: 0.02 mg/kg/injection, schedule: Q## X024 (ip), vehicle: other 100 % of control | dose: 0.03 mg/kg/injection, schedule: Q01DX009 (ip), vehicle: distilled water + Tween-80 117 % of control and 97 % of control | dose: 0.03 mg/kg/injection, schedule: Q01DX009 (ip), vehicle: other 95 % of control | dose: 0.04 mg/kg/injection, schedule: Q01DX009 (ip), vehicle: DMSO 123 % of control | dose: 0.05 mg/kg/injection, schedule: Q01DX001 (ip), vehicle: other 120 % of control | dose: 0.05 mg/kg/injection, schedule: Q01DX009 (ip), vehicle: DMSO 119 % of control | dose: 0.05 mg/kg/injection, schedule: Q## X008 (ip), vehicle: other 120 % of control | dose: 0.05 mg/kg/injection, schedule: Q## X016 (ip), vehicle: other 110 % of control | dose: 0.05 mg/kg/injection, schedule: Q## X024 (ip), vehicle: other 110 % of control | dose: 0.06 mg/kg/injection, schedule: Q01DX009 (ip), vehicle: DMSO 124 % of control | dose: 0.08 mg/kg/injection, schedule: Q01DX009 (ip), vehicle: DMSO 110 % of control | dose: 0.1 mg/kg/injection, schedule: Q01DX001 (ip), vehicle: other 120 % of control | dose: 0.1 mg/kg/injection, schedule: Q01DX009 (oral), vehicle: other 110 % of control | dose: 0.1 mg/kg/injection, schedule: Q## X008 (ip), vehicle: other 120 % of control | dose: 0.1 mg/kg/injection, schedule: Q## X016 (ip), vehicle: other 110 % of control | dose: 0.12 mg/kg/injection, schedule: Q01DX009 (ip), vehicle: other 120 % of control | dose: 0.15 mg/kg/injection, schedule: Q01DX009 (ip), vehicle: dioxane 123 % of control | dose: 0.16 mg/kg/injection, schedule: Q01DX009 (ip), vehicle: distilled water + Tween-80 123 % of control | dose: 0.16 mg/kg/injection, schedule: Q01DX009 (ip), vehicle: other 102 % of control and 103 % of control | dose: 0.2 mg/kg/injection, schedule: Q01DX001 (ip), vehicle: other 120 % of control | dose: 0.2 mg/kg/injection, schedule: Q01DX009 (oral), vehicle: other 110 % of control | dose: 0.2 mg/kg/injection, schedule: Q## X008 (ip), vehicle: other 120 % of control | dose: 0.2 mg/kg/injection, schedule: Q## X016 (ip), vehicle: other 120 % of control | dose: 0.32 mg/kg/injection, schedule: Q01DX009 (ip), vehicle: distilled water + Tween-80 101 % of control and 94 % of control | dose: 0.4 mg/kg/injection, schedule: Q01DX009 (oral), vehicle: other 110 % of control | dose: 0.8 mg/kg/injection, schedule: Q01DX001 (oral), vehicle: other 100 % of control | dose: 0.8 mg/kg/injection, schedule: Q01DX009 (oral), vehicle: other 100 % of control | dose: 1.6 mg/kg/injection, schedule: Q01DX001 (oral), vehicle: other 100 % of control | dose: 2.5 mg/kg/injection, schedule: Q01DX009 (ip), vehicle: saline with Tween-80 95 % of control | dose: 3.2 mg/kg/injection, schedule: Q01DX001 (oral), vehicle: other 90 % of control | dose: 12.5 mg/kg/injection, schedule: Q01DX009 (ip), vehicle: distilled water + Tween-80 103 % of control | dose: 25.0 mg/kg/injection, schedule: Q01DX009 (ip), vehicle: distilled water + Tween-80 110 % of control | dose: 50.0 mg/kg/injection, schedule: Q01DX009 (ip), vehicle: distilled water + Tween-80 119 % of control | dose: 200.0 mg/kg/injection, schedule: Q01DX009 (ip), vehicle: distilled water + Tween-80 119 % of control | dose: 25.0 micrograms/kg/injection, schedule: Q01DX009 (ip), vehicle: other 120 % of control | dose: 400.0 micrograms/kg/injection, schedule: Q01DX009 (ip), vehicle: other 114 % of control

CC(=O)C[C@H](c1ccccc1)c1ccccc1[C@H](C)N(C)C
inactive: [1] 106 % of control | [2] 104 % of control

[Cl][Pt+2][Cl].[NH-]CC([NH-])CN
inactive: dose: 6.25 mg/kg/injection, schedule: Q04DX003 (ip), vehicle: saline 101 % of control | dose: 12.5 mg/kg/injection, schedule: Q04DX003 (ip), vehicle: saline 111 % of control | dose: 25.0 mg/kg/injection, schedule: Q04DX003 (ip), vehicle: saline 107 % of control

N#CC1=C(N)OC(C2CC2)=C(C#N)C1c1ccco1 (centres undefined)
inactive: dose: 60.0 mg/kg/injection, schedule: Q01DX005 (ip), vehicle: Klucel (hydroxypropylcellulose) (HPC) 88 % of control | dose: 120.0 mg/kg/injection, schedule: Q01DX005 (ip), vehicle: Klucel (hydroxypropylcellulose) (HPC) 88 % of control

O=CNc1c(Br)cc2c(c1Br)Cc1cc([N+](=O)[O-])ccc1-2
inactive: [3] 97 % of control | [4] 90 % of control | [5] 92 % of control | [6] 89 % of control

CCOc1ccc(N2C(=O)C(=O)C(C(C)=O)C2=O)cc1 (centres undefined)
inactive: dose: 50.0 mg/kg/injection, schedule: Q01DX009 (ip), vehicle: Klucel (hydroxypropylcellulose) (HPC) 108 % of control | dose: 100.0 mg/kg/injection, schedule: Q01DX009 (ip), vehicle: Klucel (hydroxypropylcellulose) (HPC) 106 % of control | dose: 200.0 mg/kg/injection, schedule: Q01DX009 (ip), vehicle: Klucel (hydroxypropylcellulose) (HPC) 100 % of control

CN(C)CCC1CC(O)CCC1(C)O (centres undefined)
inactive: dose: 50.0 mg/kg/injection, schedule: Q01DX005 (ip), vehicle: saline 98 % of control | dose: 100.0 mg/kg/injection, schedule: Q01DX005 (ip), vehicle: saline 100 % of control | dose: 200.0 mg/kg/injection, schedule: Q01DX005 (ip), vehicle: saline 102 % of control

CCc1c(Cc2[nH]c(C=O)c(C)c2CC)[nH]c(C=O)c1C
inactive: [7] 100 % of control | [8] 100 % of control | [9] 100 % of control

O=C1CC2NC(=O)C(CCCCN1)NC2=O (centres undefined)
inactive: dose: 1.5 mg/kg/injection, schedule: Q01DX009 (ip), vehicle: Klucel (hydroxypropylcellulose) (HPC) 100 % of control | dose: 3.0 mg/kg/injection, schedule: Q01DX009 (ip), vehicle: Klucel (hydroxypropylcellulose) (HPC) 99 % of control | dose: 6.0 mg/kg/injection, schedule: Q01DX009 (ip), vehicle: Klucel (hydroxypropylcellulose) (HPC) 97 % of control | dose: 12.0 mg/kg/injection, schedule: Q01DX009 (ip), vehicle: Klucel (hydroxypropylcellulose) (HPC) 109 % of control

Cc1ccc2c3c(c(=O)oc2c1)[C@H](C)C[C@@](C)(CO)O3
inactive: [1] 113 % of control | [2] 107 % of control | dose: 240.0 mg/kg/injection, schedule: Q01DX005 (ip), vehicle: saline with Tween-80 100 % of control

COC1(C)OC23C(=O)N(C)C(=O)N(C)C2(O1)N(C(C)=O)C(=O)N3C (centres undefined)
inactive: [7] 100 % of control | [8] 105 % of control | [9] 98 % of control

Clc1c(Cl)c(Cl)c(C[n+]2ccccc2)c(Cl)c1Cl
inactive: [3] 105 % of control | [4] 98 % of control | [5] 102 % of control | [6] 99 % of control
